Data: US10167300B2, “Metalloenzyme inhibitor compounds as fungicides” (priority 2014, dated 2019)
Where two headings read alike, the source gives them in different places.

Key:
Format in all cases: in vivo, Mycosphaerella graminicola on wheat plants (variety Yuma)
[1] = tested on: Mycosphaerella graminicola; Anamorph: Septoria tritici; Bayer Code SEPTTR (standard laboratory isolate, SI SEPTTR); test: Type B (low volume, EC formulation, track sprayer 200 L/ha) assay, leaf blotch of wheat, standard laboratory SEPTTR isolate (SI SEPTTR); details: Zymoseptoria tritici, 72 h, standard laboratory isolate, low volume EC, 100 g/ha, wheat (Yuma)
Method: Example A: Evaluation of Fungicidal Activity: Leaf Blotch of Wheat (Mycosphaerella graminicola; Anamorph: Septoria tritici; Bayer Code SEPTTR)
For Type A assays, technical grades of the experimental fungicides in Table 4 below were dissolved in acetone, and then mixed with nine volumes of water containing 110 ppm Triton X-100. The fungicide solutions were applied onto wheat seedlings using an automated booth sprayer. For Type B assays, emulsifiable concentrate (EC) formulations of technical grades of the experimental fungicides in Table 4 below were prepared at 10% (w/v), and then mixed with 150 volumes of 0.1% Trycol 5941. These solutions were applied onto wheat seedlings using an automated track sprayer at 200 L/ha. All sprayed plants were allowed to air dry prior to further handling.
Wheat plants (variety Yuma) were grown from seed in a greenhouse in 50% mineral soil/50% soil-less Metro mix until the first leaf was fully emerged, with 7-10 seedlings per pot. Prior to or after application of experimental fungicides, plants were inoculated either with spores of a standard laboratory SEPTTR isolate (SI SEPTTR) or with spores from a SEPTTR field isolate collected from Wellsbourne, England in 2012 (FI SEPTTR). After inoculation the plants were kept for 3 days at 20° C. in 100% relative humidity (one day in a dark dew chamber followed by two days in a lighted dew chamber). Plants were then transferred to a 20° C. greenhouse for disease development. When disease symptoms were fully expressed on untreated plants, infection levels on treated plants were assessed on a scale of 0 to 100 percent disease severity. Percent disease control was calculated using the ratio of disease severity on treated plants relative to untreated plants.

[2] = Type B (low volume, EC formulation, track sprayer 200 L/ha) assay, leaf blotch of wheat, SEPTTR field isolate (FI SEPTTR); details: Zymoseptoria tritici, 72 h, field isolate, low volume EC, 100 g/ha, wheat (Yuma)
Method in brief: (§1)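 Wheat seedlings (Yuma, first leaf emerged) sprayed with acetone/Triton X-100 solutions (Type A) or 10% EC diluted in 0.1% Trycol at 200 L/ha (Type B), inoculated before or after spraying. Inoculated plants held 3 days at 20 °C, 100% RH, then greenhouse; % disease control from severity versus untreated plants.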

[3] = tested on: Mycosphaerella graminicola; Anamorph: Septoria tritici; Bayer Code SEPTTR (standard laboratory isolate, SI SEPTTR); test: Type A (high volume) assay, leaf blotch of wheat, standard laboratory SEPTTR isolate (SI SEPTTR); details: Zymoseptoria tritici, standard laboratory isolate, high volume, 50 ppm, wheat (Yuma)
Method in brief: as §1

[4] = 3 Day Curative, read-out: Disease Control, SI SEPTTR Type B Assay (100 g/ha) 3 DC
[5] = 3 Day Protectant, read-out: Disease Control, SI SEPTTR Type B Assay (100 g/ha) 3 DP
[6] = 3 Day Curative, read-out: Disease Control, FI SEPTTR Type B Assay (100 g/ha) 3 DC
[7] = 3 Day Protectant, read-out: Disease Control, FI SEPTTR Type B Assay (100 g/ha) 3 DP
[8] = 24 h, 1 Day Protectant, read-out: Disease Control, SI SEPTTR Type A Assay (50 ppm) 1 DP
[9] = 72 h, 3 Day Curative, read-out: Disease Control, SI SEPTTR Type A Assay (50 ppm) 3 DC

Row | SMILES | pest or weed control at 100 g/ha [1, 4] | pest or weed control at 100 g/ha [1, 5] | pest or weed control at 100 g/ha [2, 6] | pest or weed control at 100 g/ha [2, 7] | pest or weed control at 50 ppm [3, 8] | pest or weed control at 50 ppm [3, 9]
1 | OC(c1cccnc1)(c1ccc(-c2ccc(OC(F)(F)F)cc2)cn1)c1ccc(F)cc1F (stereo not drawn) [Compound 91] | 60 to 79% | 80 to 100% | 40 to 59% | 80 to 100% | 80 to 100% | 
2 | OC(c1cccnc1)(c1ccc(-c2ccc(OC(F)F)cc2)cn1)C1CC1 (stereo not drawn) [Compound 81] | 80 to 100% | 60 to 79% | < 40% | 80 to 100% | 80 to 100% | 
3 | CCC(C)(C)C(O)(c1cncnc1)c1ccc(-c2ccc(OC(F)(F)F)cc2)cn1 (stereo not drawn) [Compound 93, 2,2-dimethyl-1-pyrimidin-5-yl-1-[5-[4-(trifluoromethoxy)phenyl]-2-pyridyl]butan-1-ol] | 80 to 100% | 80 to 100% | 60 to 79% | 80 to 100% | 80 to 100% | 
4 | CC(C)(C)C(O)(c1cncnc1)c1ccc(-c2ccc(OCC(F)(F)F)cc2)cn1 (stereo not drawn) [Compound 120] | 80 to 100% | 80 to 100% | 80 to 100% | 60 to 79% | 80 to 100% | 
5 | CC(C)(C)C(O)(c1cncnc1)c1ccc(-c2ccc(Cl)cc2)cn1 (stereo not drawn) [Compound 65] | 80 to 100% | 80 to 100% | 60 to 79% | 60 to 79% | 80 to 100% | 
6 | CC(C)(C)C(O)(c1cncnc1)c1ccc(-c2ccc(F)cc2)cn1 (stereo not drawn) [Compound 115] | 80 to 100% | 80 to 100% | 80 to 100% | 80 to 100% | 80 to 100% | 
7 | CC(C)(C)C(O)(c1cncnc1)c1ccc(-c2ccc(SC(F)(F)F)cc2)cn1 (stereo not drawn) [Compound 125] | 80 to 100% | 80 to 100% | 80 to 100% | 60 to 79% | 80 to 100% | 
8 | CC(C)C(O)(c1cncnc1)c1ccc(-c2ccc(OC(F)(F)F)cc2)cn1 (stereo not drawn) [Compound 63] | 80 to 100% | 80 to 100% | 40 to 59% | 60 to 79% | 80 to 100% | 80 to 100%
9 | CC(C)(C)C(O)(c1ccc(-c2ccc(OC(F)F)cc2)cn1)c1cncs1 (stereo not drawn) [Compound 86] | 80 to 100% | 80 to 100% | 80 to 100% | 80 to 100% | 60 to 79% | 
10 | CC(C)(C)C(O)(c1cncnc1)c1ccc(-c2ccccc2)cn1 (stereo not drawn) [Compound 114] | 80 to 100% | 80 to 100% | 80 to 100% | 60 to 79% | 60 to 79% | 
11 | CC(C)(C)c1ccc(-c2ccc(C(O)(c3cccnc3)C(C)(C)C)nc2)cc1 (stereo not drawn) [Compound 143] | 80 to 100% | 60 to 79% | 80 to 100% | 80 to 100% | 80 to 100% | 
12 | CC(C)(C)C(O)(c1cncnc1)c1ccc(-c2ccc(OC3CC3)cc2)cn1 (stereo not drawn) [Compound 102] | 80 to 100% | 80 to 100% | 80 to 100% | 80 to 100% | 80 to 100% | 
13 | Cc1ncncc1C(O)(c1ccc(-c2ccc(OC(F)(F)F)cc2)cn1)C(C)(C)C (stereo not drawn) [Compound 118] | 80 to 100% | 80 to 100% | 80 to 100% | 80 to 100% | 80 to 100% | 
14 | COc1ncncc1C(O)(c1ccc(-c2ccc(C3(C#N)CC3)cc2)cn1)C(C)(C)C (stereo not drawn) [Compound 169] | 80 to 100% | 60 to 79% | 80 to 100% | 80 to 100% | 80 to 100% | 
15 | OC(Cc1ccc(Cl)cc1F)(c1cncnc1)c1ccc(Oc2ccc(Cl)cc2)cn1 (stereo not drawn) [Compound 41, 2-(4-chloro-2-fluorophenyl)-1-(5-(4-chlorophenoxy)-pyridin-2-yl)-1-(pyrimidin-5-yl)ethanol] | 80 to 100% | 80 to 100% | < 40% | 60 to 79% | 80 to 100% | 80 to 100%
16 | OC(c1cncnc1)(c1ccc(-c2ccc(OC(F)(F)F)cc2)cn1)C1CC1 (stereo not drawn) [Compound 73] | 80 to 100% | 80 to 100% | 60 to 79% | 60 to 79% | 80 to 100% | 
17 | OC(Cc1ccc(Cl)cc1F)(c1cccnc1)c1ccc(-c2ccc(OC(F)(F)F)cc2)cn1 (stereo not drawn) [Compound 90] | 80 to 100% | 80 to 100% | 80 to 100% | 80 to 100% | 80 to 100% | 
18 | CC(C)(C)C(O)(c1cncnc1)c1ccc(-c2ccc(C#N)cc2)cn1 (stereo not drawn) [Compound 88] | 80 to 100% | 80 to 100% | 80 to 100% | 80 to 100% | 80 to 100% | 
19 | CC(C)C(O)(Cc1cncnc1)c1ccc(-c2ccc(Cl)cc2)cn1 (stereo not drawn) [Compound 38] | 80 to 100% | 80 to 100% | 80 to 100% | 40 to 59% | 80 to 100% | 80 to 100%
20 | CC(C)(C)C(O)(c1cncnc1)c1ccc(-c2ccc(OC(F)F)cc2)cn1 (stereo not drawn) [Compound 59] | 80 to 100% | 80 to 100% | 80 to 100% | 80 to 100% | 80 to 100% | 80 to 100%
21 | CC(C)(C)C(O)(Cc1cncnc1)c1ccc(-c2ccc(Cl)cc2)cn1 (stereo not drawn) [Compound 51] | 40 to 59% | 60 to 79% | 60 to 79% | 60 to 79% | 80 to 100% | 80 to 100%
22 | COc1ccc(-c2ccc(C(O)(c3cncnc3)C(C)(C)C)nc2)cc1 (stereo not drawn) [Compound 95] | 80 to 100% | 80 to 100% | 80 to 100% | 80 to 100% | 80 to 100% | 
23 | CC(C)(C)C(O)(Cc1cncnc1)c1ccc(-c2ccc(OC(F)(F)F)cc2)cn1 (stereo not drawn) [Compound 74] | 80 to 100% | 80 to 100% | 40 to 59% | < 40% | 80 to 100% | 
24 | Cn1cc(-c2ccc(C(O)(c3cncnc3)C(C)(C)C)nc2)cn1 (stereo not drawn) [Compound 122] | 80 to 100% | 80 to 100% | 60 to 79% | 60 to 79% | 80 to 100% | 
25 | COc1ncncc1C(O)(c1ccc(-c2ccc(OC(F)(F)F)cc2)cn1)C(C)(C)C (stereo not drawn) [Compound 167] | 80 to 100% | 60 to 79% | 80 to 100% | 80 to 100% | 80 to 100% | 
26 | CC(C)(C)C(O)(c1cncnc1)c1ccc(-c2ccccc2OC(F)(F)F)cn1 (stereo not drawn) [Compound 104] | 80 to 100% | 80 to 100% | < 40% | 80 to 100% | 80 to 100% | 
